Values of other authors as cited in patent publication US20100330150A1, “Orally Disintegrating Tablet Compositions Comprising Combinations of High and Low-Dose Drugs” (priority 2009, published 2010).

Columns and labels:
serum protein = conditions: after normal therapeutic dosages

CC(=O)Nc1ccc(O)cc1 [acetaminophen]
Plasma half-life (normal, healthy patients): 1 to 2.5 h
Time after which only traces of the drug are detectable (oral administration): about 8 hours
Time at which peak plasma concentrations are attained (oral administration): 30 to 60 min
Binding to serum protein (serum protein): about 25%
